These results are taken from patent publication US20240383908A1, “SYNTHESIS AND APPLICATION OF PHOSPHATASE DEGRADER” (HINOVA PHARMACEUTICALS INC., priority 2021, published 2024).

Test [1] deals with T1, SHP2 protein (Homo sapiens, UniProt Q06124).
T1 sequence (Q06124 1-593): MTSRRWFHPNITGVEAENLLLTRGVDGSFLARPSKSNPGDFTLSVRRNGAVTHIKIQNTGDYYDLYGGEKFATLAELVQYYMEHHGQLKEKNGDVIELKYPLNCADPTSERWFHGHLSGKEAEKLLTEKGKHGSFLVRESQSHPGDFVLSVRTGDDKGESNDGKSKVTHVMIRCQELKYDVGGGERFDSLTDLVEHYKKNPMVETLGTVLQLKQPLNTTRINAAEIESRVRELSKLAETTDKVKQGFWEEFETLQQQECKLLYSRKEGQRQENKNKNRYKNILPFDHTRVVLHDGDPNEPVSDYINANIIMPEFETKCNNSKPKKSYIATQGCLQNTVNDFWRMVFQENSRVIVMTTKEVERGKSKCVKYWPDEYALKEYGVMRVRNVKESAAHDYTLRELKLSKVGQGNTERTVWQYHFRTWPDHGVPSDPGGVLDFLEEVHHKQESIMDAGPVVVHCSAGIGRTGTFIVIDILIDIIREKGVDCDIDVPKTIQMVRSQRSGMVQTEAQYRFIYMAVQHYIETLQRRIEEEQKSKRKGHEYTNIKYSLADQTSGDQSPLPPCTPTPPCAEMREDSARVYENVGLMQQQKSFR
Nature of the test: Degradation activity on SHP2 protein in MV-411 cells (Western blot, DC50). It counts as cell-based. Further details: endogenous in cells. The conditions noted are these: MV411 cells, 24 hours, read-out: Degradation activity for differenct cell lines MV411 (DC50). In outline: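 MV-411 cells (1×10^6 cells/well, IMDM + 10% FBS) were treated 24 h with compound at 0.1-100 nM final, 0.1% DMSO, duplicates. SHP2 measured by Western blot against GAPDH, band density normalised to DMSO control; DC50 from dose-response fit.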
In general terms: Immunoblotting shows a protein as a band on a membrane.

Test [2] has as its target T1, SHP2 protein. Briefly: Degradation activity on SHP2 protein in MIA Paca-2 cells (Western blot, DC50). It counts as cell-based. More on the design: endogenous in cells; host or cells: MIA Paca-2 cells. The conditions noted are these: read-out: Degradation activity for differenct cell lines MIA Paca-2 (DC50). Summed up:
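Cells were treated 24 h at 37 °C with compound (0.1–100 nM final, 0.1% DMSO). SHP2 was measured by Western blot with GAPDH as loading control, densitometry normalized to DMSO (100%). DC50, the concentration giving 50% degradation, came from a dose-response fit.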

In the case of `CC1(N)CCN(c2cnc(Sc3cccc(NC(=O)CCCCCCCCN4CCN(c5ncc(C(=O)NCc6ccc7c(c6)CN(C6CCC(=O)NC6=O)C7=O)cn5)CC4)c3)cn2)CC1` (stereo not shown) [Compound 48, 2-(4-(9-((3-((5-(4-amino-4-methylpyridin-1-yl)pyrazin-2-yl)thio)phenyl)amino)-9-oxononyl)piperazin-1-yl)-N-((2-(2,6-dioxopiperidin-3-yl)-1-oxoisoindol-5-yl)methyl)pyrimidine-5-formamide], the DC50 in test [1] and in test [2] was below 100 nM throughout.

For `CC1(N)CCN(c2cnc(Sc3cccc(NC(=O)/C=C/C(=O)N4CCN(CCCCCCCCC(=O)NCc5ccc6c(c5)CN(C5CCC(=O)NC5=O)C6=O)CC4)c3)cn2)CC1` (stereo not shown) [Compound 55], the half-maximal degradation concentration (DC50) in test [1] is below 100 nM; in test [2], above 1000 nM. With `CC1(N)CCN(c2cnc(Sc3ccc(NC(=O)CCCCCCCCOC4CN(c5ncc(C(=O)NCc6ccc7c(c6)CN(C6CCC(=O)NC6=O)C7=O)cn5)C4)cc3)cn2)CC1` (stereo not shown) [Compound 74], the half-maximal degradation concentration (DC50) in test [1] was below 100 nM; in test [2], 100 to 1000 nM.

Regarding `Cc1ncsc1-c1ccc([C@H](C)NC(=O)[C@@H]2C[C@@H](O)CN2C(=O)[C@@H](NC(=O)c2cnc(N3CCC4(CN(CCCCCCC(=O)Nc5cccc(Sc6cnc(N7CCC(C)(N)CC7)cn6)c5)C4)C3)nc2)C(C)(C)C)cc1` [Compound 90], the DC50 in test [1] and in test [2] was below 100 nM each time. On to `CC1(N)CCN(c2cnc(Sc3cccc(NC(=O)CCCCCCN4CC5(CCN(c6ncc(C(=O)NCc7ccc8c(c7)CN(C7CCC(=O)NC7=O)C8=O)cn6)C5)C4)c3)cn2)CC1` (stereo not shown) [Compound 91], for which the values for the DC50 in test [1] and in test [2] were below 100 nM and 100 to 1000 nM, respectively. Turning to `Cc1ncsc1-c1ccc([C@H](C)NC(=O)[C@@H]2C[C@@H](O)CN2C(=O)[C@@H](NC(=O)c2ccc(N3CCC4(CN(CCC(=O)Nc5cccc(Sc6cnc(N7CCC(C)(N)CC7)cn6)c5)C4)C3)nn2)C(C)(C)C)cc1` [Compound 98], the 50% degradation concentration (DC50) in test [1] was below 100 nM; in test [2] it was 100 to 1000 nM. In the same order, the values of `CC1(N)CCN(c2cnc(Sc3cccc(NC(=O)CCCCCCCO[C@H]4CCN(c5ccc(C(=O)NCc6ccc7c(c6)CN(C6CCC(=O)NC6=O)C7=O)nn5)C4)c3)cn2)CC1` (stereo partly shown) [Compound 102] are below 100 nM and below 100 nM.

Take `CC1(N)CCN(c2cnc(Sc3cccc(NC(=O)CCCCCCCO[C@@H]4CCN(c5ncc(C(=O)NCc6ccc7c(c6)CN(C6CCC(=O)NC6=O)C7=O)cn5)C4)c3)cn2)CC1` (stereo partly shown) [Compound 104]: the DC50 in test [1] was below 100 nM; in test [2] it was above 1000 nM. In the same order, the values of `Cc1ncsc1-c1ccc([C@H](C)NC(=O)[C@@H]2C[C@@H](O)CN2C(=O)[C@@H](NC(=O)c2ccc(N3CCC4(CN(CCCCCCCC(=O)Nc5cccc(Sc6cnc(N7CCC(C)(N)CC7)cn6)c5)C4)C3)nn2)C(C)(C)C)cc1` [Compound 105] are below 100 nM and 100 to 1000 nM. In the same order, the values of `CC1(N)CCN(c2cnc(Sc3cccc(NC(=O)CCCCCCCN4CC5(CCN(c6ccc(COc7cccc8c7CN(C7CCC(=O)NC7=O)C8=O)nn6)C5)C4)c3)cn2)CC1` (stereo not shown) [Compound 107] are below 100 nM and above 1000 nM. In the same order, the values of `O=C1CCC(N2Cc3cc(CNC(=O)c4ccc(N5CCC6(CN(CCCCCCC(=O)Nc7cccc(Sc8cnc(N9CCC%10(CCNC%10)CC9)cn8)c7)C6)C5)nn4)ccc3C2=O)C(=O)N1` (stereo not shown) [Compound 112] are below 100 nM and above 1000 nM. Regarding `NC1CCN(c2cnc(Sc3cccc(NC(=O)CCCCN4CC5(CCN(c6ccc(C(=O)NCc7ccc8c(c7)CN(C7CCC(=O)NC7=O)C8=O)nn6)C5)C4)c3)cn2)CC1F` (stereo not shown) [Compound 140], the DC50 in test [1] and in test [2] was above 1000 nM each time. In the case of `CC1(N)CCN(c2cnc(Sc3cccc(NC(=O)CCCCCCCOC4CCN(c5ccc(C(=O)NCc6ccc7c(c6)CN(C6CCC(=O)NC6=O)C7=O)nn5)CC4F)c3)cn2)CC1` (stereo not shown) [Compound 146], the DC50 in test [1] and in test [2] was below 100 nM throughout. Turning to `CC1(N)CCN(c2cnc(Sc3cccc(NC(=O)CCCCCCN4CC5(CCN(c6ccc(C(=O)NCc7ccc8c(c7)CN(C7CCC(=O)NC7=O)C8=O)cn6)C5)C4)c3)cn2)CC1` (stereo not shown) [Compound 155], the DC50 in test [1] and in test [2] was below 100 nM throughout. In the case of `CC1(N)CCN(c2cnc(Sc3cccc(NC(=O)CCCCCCN4CC5(CCN(c6ccc(C#Cc7ccc8c(c7)CN(C7CCC(=O)NC7=O)C8=O)nn6)C5)C4)c3)cn2)CC1` (stereo not shown) [Compound 157], the DC50 in test [1] was below 100 nM; in test [2] it was above 1000 nM.

With `CC1(N)CCN(c2cnc(Sc3cccc(NC(=O)CCCCCCN4CC5(CCN(C6CC(C(=O)NCc7ccc8c(c7)CN(C7CCC(=O)NC7=O)C8=O)C6)C5)C4)c3)cn2)CC1` (stereo not shown) [Compound 160], the figures for the 50% degradation concentration (DC50) in test [1] and in test [2] were 100 to 1000 nM and above 1000 nM, respectively. For `CC1(N)CCN(c2cnc(Sc3cccc(NC(=O)CCCCCOC4CC5(CCN(c6ccc(C(=O)NCc7ccc8c(c7)CN(C7CCC(=O)NC7=O)C8=O)nn6)C5)C4)c3)cn2)CC1` (stereo not shown) [Compound 166] the same measures were below 100 nM and below 100 nM. For `CC1(N)CCN(c2cnc(Sc3cccc(NC(=O)CCCCCCN4CC5(CCN(c6ncc(C(=O)NCc7ccc8c(c7)CN(C7CCC(=O)NC7=O)C8=O)cc6C(F)(F)F)C5)C4)c3)cn2)CC1` (stereo not shown) [Compound 170] the same measures were below 100 nM and 100 to 1000 nM.

Regarding `CC1(N)CCN(c2cnc(Sc3cccc(NC(=O)CCCCCCN4CC5(CCN(c6ccc(C(NCc7ccc8c(c7)CN(C7CCC(=O)NC7=O)C8=O)C(F)(F)F)nn6)C5)C4)c3)cn2)CC1` (stereo not shown) [Compound 193, N-(3-((5-(4-amino-4-methylpyridin-1-yl)pyrazin-2-yl)thio)phenyl)-7-(6-(6-(1-(((2-(2,6-dioxopiperidin-3-yl)-1-oxoisoindol-5-yl)methyl)amino)-2,2,2-trifluoroethyl)pyridazin-3-yl)-2,6-diazaspiro[3.4]octan-2-yl)heptanamide], in test [1], the DC50 is above 1000 nM.

Take `NC1CCN(c2cnc(Sc3cccc(NC(=O)CCCCCCN4CC5(CCN(c6ccc(C(=O)NCc7ccc8c(c7)CN(C7CCC(=O)NC7=O)C8=O)nn6)C5)C4)c3)cn2)CC1CO` (stereo not shown) [Compound 194]: the DC50 in test [1] is below 100 nM.

Consider `CC1(N)CCN(c2cnc(Sc3cccc(NC(=O)CCCCCCCCCCCNc4ccc(C(=O)NCc5ccc6c(c5)CN(C5CCC(=O)NC5=O)C6=O)nn4)c3)cn2)CC1` (stereo not shown) [Compound 195], for which the DC50 in test [1] was 100 to 1000 nM.

For `N[C@H]1CCN(c2cnc(Sc3cccc(NC(=O)CCCCCN4CC5(CCN(c6ccc(C(=O)NCc7ccc8c(c7)CN(C7CCC(=O)NC7=O)C8=O)nn6)C5)C4)c3)cn2)C[C@@H]1O` (stereo partly shown) [Compound 196], in test [1], the DC50 is above 1000 nM. `N[C@H]1CCN(c2cnc(Sc3cccc(NC(=O)CCCCCCN4CC5(CCN(c6ccc(C(=O)NCc7ccc8c(c7)CN(C7CCC(=O)NC7=O)C8=O)nn6)C5)C4)c3)cn2)C[C@@H]1O` (stereo partly shown) [Compound 197]: the half-maximal degradation concentration (DC50) in test [1] was above 1000 nM. On the same count and under the same terms, the value for `NC1(CO)CCN(c2cnc(Sc3cccc(NC(=O)CCCCCCN4CC5(CCN(c6ccc(C(=O)NCc7ccc8c(c7)CN(C7CCC(=O)NC7=O)C8=O)nn6)C5)C4)c3)cn2)C1` (stereo not shown) [Compound 198] was above 1000 nM; that for `NC1(CO)CCN(c2cnc(Sc3cccc(NC(=O)CCCCCCCNc4ccc(-c5ccc(C(=O)NCc6ccc7c(c6)C(=O)N(C6CCC(=O)NC6=O)C7)nn5)cc4)c3)cn2)CC1` (stereo not shown) [Compound 201] was 100 to 1000 nM; that for `NC1(CO)CCN(c2cnc(Sc3cccc(NC(=O)CCCCCCCCN4CC=C(c5ccc(C(=O)NCc6ccc7c(c6)CN(C6CCC(=O)NC6=O)C7=O)nn5)CC4)c3)cn2)CC1` (stereo not shown) [Compound 202] was below 100 nM. On the same count and under the same terms, the value for `CC(C)(C)OC(=O)NCC1(O)C2CCC1CN(c1cnc(Sc3cccc(NC(=O)CCCCCCN4CC5(CCN(c6ccc(C(=O)NCc7ccc8c(c7)CN(C7CCC(=O)NC7=O)C8=O)nn6)C5)C4)c3)cn1)C2` (stereo not shown) [Compound 203] was above 1000 nM; that for `NCC1(O)C2CCC1CN(c1cnc(Sc3cccc(NC(=O)CCCCCCN4CC5(CCN(c6ccc(C(=O)NCc7ccc8c(c7)CN(C7CCC(=O)NC7=O)C8=O)nn6)C5)C4)c3)cn1)C2` (stereo not shown) [Compound 204] was above 1000 nM; that for `CC(C)(C)OC(=O)NC1CN(c2cnc(Sc3cccc(NC(=O)CCCCCCN4CC5(CCN(c6ccc(C(=O)NCc7ccc8c(c7)CN(C7CCC(=O)NC7=O)C8=O)nn6)C5)C4)c3)cn2)CC1O` (stereo not shown) [Compound 205] was above 1000 nM. On the same count and under the same terms, the figure for `NC1CN(c2cnc(Sc3cccc(NC(=O)CCCCCCN4CC5(CCN(c6ccc(C(=O)NCc7ccc8c(c7)CN(C7CCC(=O)NC7=O)C8=O)nn6)C5)C4)c3)cn2)CC1O` (stereo not shown) [Compound 206] is above 1000 nM; for `NC1(CO)CCN(c2cnc(Sc3cccc(NC(=O)CCCCCC=C4CC5(CCN(c6ccc(C(=O)NCc7ccc8c(c7)CN(C7CCC(=O)NC7=O)C8=O)nn6)CC5)C4)c3)cn2)CC1` (stereo not shown) [Compound 210] it is below 100 nM.

Broadly, the DC50 is the concentration at which degradation of the target reaches its halfway point.
